The source made the active and inactive calls. The rule behind the calls is not given here.
Biological target: Influenza A virus M2 proton channel (A/TW/4845/1999 H1N1)
Assay: NMR binding screen, influenza A virus M2 proton channel, Kd (AID 1549)
Conditions: M2 protein

| Structure (SMILES) | Kd |
| --- | --- |
| COc1cccc(Oc2ccc(N)cc2)c1 | > 4 mM (inactive) |
| Cc1nnc(N2CCN(Cc3ccccc3)CC2)[nH]c1=O | > 4 mM (inactive) |
| Clc1ccc(SCCn2cncn2)cc1 | > 4 mM (inactive) |
| COc1ccc2c(c1)OCC(Cc1ccc(OC)c(OC)c1)C2=O (stereo unspecified) | > 4 mM (inactive) |
| CS(=O)(=O)Nc1cc2c3c(c1)CCN3C(=O)CC2 | > 4 mM (inactive) |
| Cc1cc(NC(=O)c2cc(C)on2)no1 | > 4 mM (inactive) |
| CCOc1ccccc1C(=O)NC1=NCCS1 | > 4 mM (inactive) |
| CC(=O)O[C@@H]1CC2C(C)(CC[C@H](O)C2(C)C)C2CC[C@]3(C)C(=CC(=O)O[C@H]3c3ccoc3)C21C (stereo partly specified) | > 4 mM (inactive) |
| CSc1nc(-c2ccco2)nn1S(C)(=O)=O | > 4 mM (inactive) |
| Nc1ccccc1N=C1CNC(=O)C1 | > 4 mM (inactive) |
| CCNC(CC(=O)Nc1ccc(F)cc1)C(=O)O (stereo unspecified) | > 4 mM (inactive) |
| CCCOn1nnnc1-c1ccccc1 | > 4 mM (inactive) |
| CC1(C)Cc2cccc(C(=O)O)c2O1 | > 4 mM (inactive) |
| Cc1cc(C)n2nc(SCC(=O)c3ccccc3)nc2n1 | > 4 mM (inactive) |
| Cc1nc(CC(=O)O)c(-c2ccccc2)s1 | > 4 mM (inactive) |
| Cc1cc2cc3c(C)cc(=O)oc3c(C)c2o1 | > 4 mM (inactive) |
| CC(=O)OC1CC[C@@]2(C)C(CCC3C2CC[C@]2(C)C(C4=CC(=O)OC4)C(OC(C)=O)CC32O)C1 (stereo partly specified) | > 4 mM (inactive) |
| Cc1cc(C)n2nc(Cc3ccccc3)nc2n1 | > 4 mM (inactive) |
| CCOC(=O)c1cc(C)n(C)n1 | > 4 mM (inactive) |
| CCNC(=S)N1CCCC(C(N)=O)C1 (stereo unspecified) | > 4 mM (inactive) |
| NS(=O)(=O)c1ccc(NC(=O)C2CC2)cc1 | > 4 mM (inactive) |

| Structure (SMILES) | Kd |
| --- | --- |
| COc1ccc(S(=O)(=O)Nc2ccccn2)c(C)c1C | > 4 mM (inactive) |
| COCc1cc(C)nc2sc(C(=O)OC)c(N)c12 | > 4 mM (inactive) |
| COC1C=CC23c4cc5c(cc4CN(CC2O)[C@@H]3C1)OCO5 (stereo partly specified) | > 4 mM (inactive) |
| COc1ccc(NC(=O)C2CC(=O)N=C(N)S2)cc1 (stereo unspecified) | > 4 mM (inactive) |
| C[C@@H]1CC[C@@]2(OC1)OC1C(O)C3C4CC[C@H]5C[C@H](O[C@@H]6O[C@H](CO)[C@H](O[C@@H]7O[C@H](CO)[C@@H](O)[C@H](O[C@@H]8OC[C@@H](O)[C@H](O)[C@H]8O)[C@H]7O[C@@H]7O[C@H](CO)[C@H](O)[C@H](O[C@@H]8O[C@H](CO)[C@@H](O)[C@H](O)[C@H]8O)[C@H]7O)[C@H](O)[C@H]6O)[C@H](O)C[C@]5(C)C4CC[C@]3(C)C1[C@@H]2C (stereo partly specified) | > 4 mM (inactive) |
| CS(=O)(=O)Nc1ccccc1C(=O)c1ccccc1 | > 4 mM (inactive) |
| O=C(c1ccco1)N1CCN(c2ccc(Cl)cc2)CC1 | > 4 mM (inactive) |
| O=C(CCc1ccc(O)cc1)c1c(O)cc(O)cc1O | > 4 mM (inactive) |
| CCc1nnsc1C(=O)Nc1nccs1 | > 4 mM (inactive) |
| NC(=O)c1ccc(NC(=O)c2cccnc2)cc1 | > 4 mM (inactive) |
| COc1c(O)cc2c(-c3ccccc3)cc(=O)oc2c1OC | > 4 mM (inactive) |
| COc1cc(OC)c(-c2nc3cnccc3n2C)cc1OC | > 4 mM (inactive) |
| O=C(/C=C/c1ccc(O)cc1)c1ccc(O)cc1O | > 4 mM (inactive) |
| O=C(O)c1cncc(-c2cccs2)c1 | > 4 mM (inactive) |
| NC(=O)c1c[nH]c2ccccc12 | > 4 mM (inactive) |
| NC(=O)C1CCN(C(=O)c2ccccc2F)CC1 | > 4 mM (inactive) |
| NC(=O)CN1CC(c2ccccc2)CC1=O (stereo unspecified) | > 4 mM (inactive) |
| CC12CCC3C(CC3(C)C)C(C)(CCC1=O)O2 (stereo unspecified) | > 4 mM (inactive) |
| Cc1ccc(C)n1/N=C1\NC(=O)CS1 | > 4 mM (inactive) |
| CN(C)C(=O)CSc1nc(N)cc(=O)[nH]1 | > 4 mM (inactive) |
| CCOC(=O)N1CCN(c2ncnc3c2cnn3C)CC1 | > 4 mM (inactive) |

| Structure (SMILES) | Kd |
| --- | --- |
| Clc1ncnc2[nH]ncc12 | > 4 mM (inactive) |
| O=c1c(Cl)c(NCCO)ncn1-c1ccccc1 | > 4 mM (inactive) |
| O=[n+]1c(CO)c(CO)n([O-])c2ccccc21 | > 4 mM (inactive) |
| O=C(O)C1CSC(c2cccnc2)N1 (stereo unspecified) | > 4 mM (inactive) |
| O=C(c1ccccc1)c1ccccc1C(=O)N1CCOCC1 | > 4 mM (inactive) |
| S=C(c1cccnc1)N1CCOCC1 | > 4 mM (inactive) |
| O=C(c1ccccc1)c1cncc(Br)c1 | > 4 mM (inactive) |
| Cn1cnc2c(cnn2-c2ccccc2)c1=O | > 4 mM (inactive) |
| CC(=O)NC1(NC(C)=O)CCN(C)CC1 | > 4 mM (inactive) |
| NC(=O)CC[C@H](N)C(=O)O | > 4 mM (inactive) |
| COc1ccc2c3c([nH]c2c1)C(C)=NCC3 | > 4 mM (inactive) |
| Cc1ccccc1C(=O)Nc1cccc(N)c1 | > 4 mM (inactive) |
| C=CC1=C(C)/C(=C/c2[nH]c(Cc3[nH]c(/C=C4\NC(=O)C(C)=C4C=C)c(C)c3CCC(=O)O)c(CCC(=O)O)c2C)NC1=O | > 4 mM (inactive) |
| CCC(=O)Nc1cccc(NC(C)=O)c1 | > 4 mM (inactive) |
| O=C1C2CC=CCC2C(=O)N1c1ccccc1 (stereo unspecified) | > 4 mM (inactive) |
| O=C(O)CCNc1n[nH]c(=O)[nH]c1=O | > 4 mM (inactive) |
| O=C(c1ccncc1)N1CCN(C(=O)c2ccncc2)CC1 | > 4 mM (inactive) |
| O=C(CN1C(=O)c2cccc3cccc(c23)C1=O)NO | > 4 mM (inactive) |
| Cn1cnc2c(=O)[nH]cc([N+](=O)[O-])c21 | > 4 mM (inactive) |
| COc1ccc(C(=O)NC2=NCCS2)cc1OC | > 4 mM (inactive) |
| O=C(Nc1cccnc1)c1cnn2cccnc12 | > 4 mM (inactive) |

| Structure (SMILES) | Kd |
| --- | --- |
| COc1cc(OC)c2c(=O)c(OC)c(-c3ccc(OC)c(OC)c3)oc2c1 | > 4 mM (inactive) |
| COCC(=O)Nc1cccc(Br)c1 | > 4 mM (inactive) |
| CC(=O)Oc1c(-c2ccccc2)oc2c(CC=C(C)C)c3c(c(OC(C)=O)c2c1=O)C=CC(C)(C)O3 | > 4 mM (inactive) |
| Nc1c(S(=O)(=O)c2ccccc2)csc1C(=O)O | > 4 mM (inactive) |
| c1ccc(-c2nnc3sc(-c4ccncc4)nn23)cc1 | > 4 mM (inactive) |
| CCn1ncc(Cl)c1C(=O)Nc1ccncc1 | > 4 mM (inactive) |
| O=C(c1ccccc1-c1ccccc1)N1CCOCC1 | > 4 mM (inactive) |
| CS(=O)(=O)Nc1ccc(C(=O)N2CCCCC2)cc1 | > 4 mM (inactive) |
| Cc1cc(SCC(=O)c2ccccc2)nc(=O)[nH]1 | > 4 mM (inactive) |
| O=C(Nc1ccccc1Cl)c1cnccn1 | > 4 mM (inactive) |
| NCC1COc2ccccc2O1 (stereo unspecified) | > 4 mM (inactive) |
| Cc1cc(C(=O)N2CCC3(CC2)OCCO3)cs1 | > 4 mM (inactive) |
| OC1CCN(C(=S)NC2CC2)CC1 | > 4 mM (inactive) |
| O=C(Nc1nnc(-c2ccco2)o1)C1=COCCO1 | > 4 mM (inactive) |
| Cc1noc(C)c1C(=O)N1CCc2ccccc21 | > 4 mM (inactive) |
| Cn1c(-c2ccccc2F)n[nH]c1=S | > 4 mM (inactive) |
| C/C=C(/C)C(=O)O[C@H]1CC[C@@]2(C)[C@@H]3CC[C@H]4[C@]5(O)C[C@H](O)[C@@]6(O)[C@@H](CN7C[C@@H](C)CC[C@H]7[C@@]6(C)O)[C@]5(O)C[C@@]42OC13O | > 4 mM (inactive) |
| Cc1ccccc1NC(=O)/C=C\C(N)=O | > 4 mM (inactive) |

Reference: PubChem BioAssay AID1549 (Sanford-Burnham Center for Chemical Genomics, 2009)
